Source: ChEMBL document CHEMBL1201862, “PubChem BioAssay data set” (2004)
Where a name gives a salt, the structure may show the parent alone.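 A five-concentration, 48-hour dose response in 96-well plates underlies each endpoint, interpolated linearly between surrounding concentrations. GI50 marks 50% less growth.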 Activity calls are given as the source filed them. Cut-off read from the data, not from the text of the source: active = GI50 up to about 1.1 µM and inactive = higher.

Columns and labels:
Assay in all cases: inhibition of tumour cell growth, NCI panel, 48 h
[1] = test system: HOP-92
[2] = test system: SNB-19
[3] = test system: SN12C
[4] = test system: DU-145
[5] = test system: A549
[6] = test system: SK-MEL-2
[7] = test system: SK-OV-3
[8] = test system: EKVX
[9] = test system: SF-539
[10] = test system: OVCAR-8
[11] = test system: MDA-N
[12] = test system: PC-3
[13] = test system: RPMI-8226
[14] = test system: 786-0
[15] = test system: HCT-116
[16] = test system: LOX IMVI
[17] = test system: HT-29
[18] = test system: UACC-62
[19] = test system: NCI-H23

Compound: CC(C)C[C@H]1C(=O)N2CCC[C@H]2[C@]2(O)O[C@](NC(=O)[C@@H]3C=C4c5cccc6[nH]c(Br)c(c56)C[C@H]4N(C)C3)(C(C)C)C(=O)N12 [BROMOCRIPTINE MESYLATE]
- GI50 [1]: > 100 µM (inactive)
- GI50 [2]: > 100 µM (inactive)
- GI50 [3]: 56.1 µM (inactive)
- GI50 [4]: > 100 µM (inactive)
- GI50 [5]: 6.98 µM (inactive)
- GI50 [6]: > 100 µM (inactive)
- GI50 [7]: > 100 µM (inactive)
- GI50 [8]: 4.74 µM (inactive)
- GI50 [9]: > 100 µM (inactive)
- GI50 [10]: > 100 µM (inactive)
- GI50 [11]: 69.8 µM (inactive)
- GI50 [12]: 4.17 µM (inactive)
- GI50 [13]: 3.8 µM (inactive)
- GI50 [14]: 53.2 µM (inactive)
- GI50 [15]: 5.33 µM (inactive)
- GI50 [16]: > 100 µM (inactive)
- GI50 [17]: 13.6 µM (inactive)
- GI50 [18]: > 100 µM (inactive)

Compound: CC(=N/NC(=S)N1CCCCC1)/C(C)=N\NC(=S)N1CCCCC1
- GI50 [1]: 1.48 µM (inactive)
- GI50 [2]: 1.88 µM (inactive)
- GI50 [3]: 1.69 µM (inactive)
- GI50 [4]: 1.61 µM (inactive)
- GI50 [5]: 1.73 µM (inactive)
- GI50 [6]: 1.97 µM (inactive)
- GI50 [7]: 1.83 µM (inactive)
- GI50 [8]: 1.63 µM (inactive)
- GI50 [9]: 2.35 µM (inactive)
- GI50 [19]: 2.13 µM (inactive)
- GI50 [10]: 2.12 µM (inactive)
- GI50 [11]: 2.47 µM (inactive)
- GI50 [12]: 1.86 µM (inactive)
- GI50 [13]: 2.19 µM (inactive)
- GI50 [14]: 1.76 µM (inactive)
- GI50 [15]: 2.34 µM (inactive)
- GI50 [16]: 3.15 µM (inactive)
- GI50 [17]: 1.93 µM (inactive)
- GI50 [18]: 1.35 µM (inactive)

Compound: O=C(Nc1sccc1S(=O)(=O)c1ccc(Cl)cc1)C(F)(F)F
- GI50 [1]: 23.6 µM (inactive)
- GI50 [2]: > 100 µM (inactive)
- GI50 [3]: 10.3 µM (inactive)
- GI50 [4]: 31.6 µM (inactive)
- GI50 [5]: 29.2 µM (inactive)
- GI50 [6]: 13.5 µM (inactive)
- GI50 [7]: 30.3 µM (inactive)
- GI50 [8]: 40.7 µM (inactive)
- GI50 [9]: 26.1 µM (inactive)
- GI50 [19]: 24.1 µM (inactive)
- GI50 [10]: 24.6 µM (inactive)
- GI50 [11]: 8.28 µM (inactive)
- GI50 [12]: 21.5 µM (inactive)
- GI50 [13]: 3.88 µM (inactive)
- GI50 [14]: 17 µM (inactive)
- GI50 [15]: 14.1 µM (inactive)
- GI50 [16]: 31 µM (inactive)
- GI50 [17]: 25 µM (inactive)
- GI50 [18]: 9.27 µM (inactive)

Compound: O=c1c2ccccc2[nH]c(=S)n1-c1ccc(/N=N/c2cccc3c(O)cccc23)cc1
- GI50 [1]: > 100 µM (inactive)
- GI50 [2]: > 100 µM (inactive)
- GI50 [3]: > 100 µM (inactive)
- GI50 [4]: > 100 µM (inactive)
- GI50 [5]: > 100 µM (inactive)
- GI50 [6]: > 100 µM (inactive)
- GI50 [7]: > 100 µM (inactive)
- GI50 [8]: > 100 µM (inactive)
- GI50 [9]: > 100 µM (inactive)
- GI50 [19]: > 100 µM (inactive)
- GI50 [10]: > 100 µM (inactive)
- GI50 [11]: 34.4 µM (inactive)
- GI50 [12]: 67.6 µM (inactive)
- GI50 [13]: 65.3 µM (inactive)
- GI50 [14]: > 100 µM (inactive)
- GI50 [15]: > 100 µM (inactive)
- GI50 [16]: 39 µM (inactive)
- GI50 [17]: > 100 µM (inactive)
- GI50 [18]: 24.4 µM (inactive)

Compound: CC(=O)[C@H]1[C@@H](OCc2ccccc2)O[N+]([O-])=C(C)[C@@H]1c1ccccc1
- GI50 [1]: 24.8 µM (inactive)
- GI50 [2]: 97.3 µM (inactive)
- GI50 [4]: 43.8 µM (inactive)
- GI50 [5]: 53.2 µM (inactive)
- GI50 [6]: 63.2 µM (inactive)
- GI50 [7]: > 100 µM (inactive)
- GI50 [8]: 53.3 µM (inactive)
- GI50 [9]: 18.6 µM (inactive)
- GI50 [19]: 54.7 µM (inactive)
- GI50 [10]: 30.4 µM (inactive)
- GI50 [11]: 41.7 µM (inactive)
- GI50 [12]: 36.1 µM (inactive)
- GI50 [13]: 14.7 µM (inactive)
- GI50 [14]: 17.6 µM (inactive)
- GI50 [16]: 21 µM (inactive)
- GI50 [17]: 19.6 µM (inactive)
- GI50 [18]: 49.2 µM (inactive)

Compound: CCCCc1c2c(nc3c1CCCC3O)CCCC2 (configuration not stated)
- GI50 [1]: 79.4 µM (inactive)
- GI50 [2]: > 100 µM (inactive)
- GI50 [3]: > 100 µM (inactive)
- GI50 [4]: > 100 µM (inactive)
- GI50 [5]: > 100 µM (inactive)
- GI50 [6]: > 100 µM (inactive)
- GI50 [7]: > 100 µM (inactive)
- GI50 [8]: 73.6 µM (inactive)
- GI50 [9]: > 100 µM (inactive)
- GI50 [19]: > 100 µM (inactive)
- GI50 [10]: > 100 µM (inactive)
- GI50 [11]: > 100 µM (inactive)
- GI50 [12]: > 100 µM (inactive)
- GI50 [13]: > 100 µM (inactive)
- GI50 [14]: > 100 µM (inactive)
- GI50 [15]: > 100 µM (inactive)
- GI50 [17]: 85.3 µM (inactive)
- GI50 [18]: > 100 µM (inactive)

Compound: CC1CCC2C(C)C(OC(=O)CCC(=O)O)OC3OC4(C)CCC1C32OO4 (configuration not stated)
- GI50 [1]: 11.6 µM (inactive)
- GI50 [2]: 37.6 µM (inactive)
- GI50 [3]: 18 µM (inactive)
- GI50 [4]: 21.4 µM (inactive)
- GI50 [5]: 11.9 µM (inactive)
- GI50 [6]: 3.86 µM (inactive)
- GI50 [7]: 53.6 µM (inactive)
- GI50 [8]: 6.27 µM (inactive)
- GI50 [9]: 11 µM (inactive)
- GI50 [10]: 3.47 µM (inactive)
- GI50 [11]: 2.65 µM (inactive)
- GI50 [12]: 0.353 µM (active)
- GI50 [13]: 0.246 µM (active)
- GI50 [14]: 15.4 µM (inactive)
- GI50 [15]: 0.759 µM (active)
- GI50 [16]: 1.06 µM (active)
- GI50 [17]: 3.52 µM (inactive)
- GI50 [18]: 6.15 µM (inactive)

Compound: Clc1ccc(-c2noc(CN3CCCCC3)n2)cc1
- GI50 [1]: > 100 µM (inactive)
- GI50 [2]: > 100 µM (inactive)
- GI50 [3]: > 100 µM (inactive)
- GI50 [4]: > 100 µM (inactive)
- GI50 [5]: > 100 µM (inactive)
- GI50 [6]: > 100 µM (inactive)
- GI50 [7]: > 100 µM (inactive)
- GI50 [8]: 54 µM (inactive)
- GI50 [9]: > 100 µM (inactive)
- GI50 [19]: > 100 µM (inactive)
- GI50 [10]: > 100 µM (inactive)
- GI50 [11]: > 100 µM (inactive)
- GI50 [12]: > 100 µM (inactive)
- GI50 [13]: 43.9 µM (inactive)
- GI50 [14]: > 100 µM (inactive)
- GI50 [15]: 90.2 µM (inactive)
- GI50 [17]: 46.2 µM (inactive)
- GI50 [18]: > 100 µM (inactive)

Compound: COC(=O)c1c(C)cccc1C1CN=NC12Cc1cccc(C)c1C2=O (configuration not stated)
- GI50 [1]: 14.8 µM (inactive)
- GI50 [2]: 48.8 µM (inactive)
- GI50 [3]: 27.2 µM (inactive)
- GI50 [4]: 47.3 µM (inactive)
- GI50 [5]: 18.9 µM (inactive)
- GI50 [6]: 32.7 µM (inactive)
- GI50 [8]: 32 µM (inactive)
- GI50 [9]: 22.8 µM (inactive)
- GI50 [19]: 32.2 µM (inactive)
- GI50 [10]: 33.9 µM (inactive)
- GI50 [11]: 33.6 µM (inactive)
- GI50 [12]: 20.3 µM (inactive)
- GI50 [13]: 17.2 µM (inactive)
- GI50 [14]: 39.1 µM (inactive)
- GI50 [15]: 28 µM (inactive)
- GI50 [16]: 13.6 µM (inactive)
- GI50 [17]: 33 µM (inactive)
- GI50 [18]: 26.9 µM (inactive)

Compound: CC(C)(C)c1cc2c(O)c(c1)Cc1cc(C(C)(C)C)cc(c1O)Cc1cc(C(C)(C)C)cc(c1O)Cc1cc(C(C)(C)C)cc(c1O)Cc1cc(C(C)(C)C)cc(c1O)Cc1cc(C(C)(C)C)cc(c1O)Cc1cc(C(C)(C)C)cc(c1O)Cc1cc(C(C)(C)C)cc(c1O)C2
- GI50 [1]: > 50 µM (inactive)
- GI50 [2]: > 50 µM (inactive)
- GI50 [3]: > 50 µM (inactive)
- GI50 [4]: > 50 µM (inactive)
- GI50 [5]: > 50 µM (inactive)
- GI50 [6]: > 50 µM (inactive)
- GI50 [7]: > 50 µM (inactive)
- GI50 [8]: > 50 µM (inactive)
- GI50 [9]: > 50 µM (inactive)
- GI50 [19]: > 50 µM (inactive)
- GI50 [10]: > 50 µM (inactive)
- GI50 [11]: > 50 µM (inactive)
- GI50 [12]: > 50 µM (inactive)
- GI50 [13]: > 50 µM (inactive)
- GI50 [14]: > 50 µM (inactive)
- GI50 [15]: > 50 µM (inactive)
- GI50 [17]: > 50 µM (inactive)
- GI50 [18]: > 50 µM (inactive)
